Where a name gives a salt, the structure may show the parent alone.
What was measured:
[1] = system: HEK-293T cells expressing Ku-wt; assay: Cell fractionation and western blot of chromatin and soluble fractions; assay type: cell-based, human; settings: 1 h
Experimental: Stock solution of Calicheamicin γ1 (Cali), gift from P.R. Hamann (Wyeth Research, Pearl River, NY, USA), was made at 40 μM in ethanol and stored at –20°C. For drug-exposure, exponentially growing cells in […] were either mock-treated or treated with Cali in fresh medium for 1 h at 37°C. Then cells were washed with phosphate-buffered saline and trypsinized. Pellets were fractionated as follows. Cells were first resuspended for 7 min on ice in 120 μL of extraction buffer 1 (50 mM HEPES pH 7.5, 150 mM NaCl, 1 mM EDTA) containing 0.1% Triton X-100 and supplemented with the Halt protease and phosphatase inhibitor cocktail (Thermo Fisher Scientific) with intermittent gentle vortexing. […] Protein content was measured with BCA reagent (Pierce) and equivalent protein amounts were denaturated in loading buffer at 1× final concentration (50 mM Tris–HCl pH 6.8, 10% glycerol, 1% SDS, 300 mM 2-mercaptoethanol, 0.01% bromophenol blue) at 95°C for 5 min, separated on SDS-PAGE gels (BioRad 4–15% TGX pre-cast gels) before overnight transfer onto Immobilon-P polyvinylidene difluoride (PVDF, Millipore) membranes. […]

[2] = system: HEK-293T cells; assay: Dual dEJ/HR reporter assay; assay type: cell-based, human; settings: versus control without inhibitors; for expression of the HR marker BFP / HR activity: NU7441 3 μM or B02 10 μM
Description: The dEJ-HR dual reporter substrate for both direct end-joining and homologous recombination was assembled into the pEGFP-N1 vector (Clontech) following sequential insertion of various PCR products, oligonucleotide linkers and synthetic DNA fragments (see Supplementary Information for a detailed description). The Cas9 and guide RNA co-expression plasmid used to cleave the reporter substrate was generated by inserting the pre-annealed gRNA-dEJ-HR-F and gRNA-dEJ-HR-R oligonucleotides into the BbsI restriction sites of pX330-U6-Chimeric_BB-CBh-hSpCas9 (a gift from Feng Zhang; Addgene plasmid # 42230; http://n2t.net/addgene:42230; RRID:Addgene_42230). The pmCherry-NLS plasmid (a gift from Martin Offterdinger; Addgene plasmid # 39319; http://n2t.net/addgene:39319; RRID:Addgene_39319) was used as an internal control of transfection efficiency in end-joining assays.
Cell lines and cultures are described in Figure 5 legend. HEK-293T cells were seeded in 6-well plates and transfected 24 h later with a mix of reporter substrate (500 ng), Cas9/gRNA expressing vector (300 ng) and pmCherry-NLS control plasmid (200 ng) using JetPEI (PolyPlus-Transfection, Illkirch-Graffenstaden, France). When indicated, cells were treated at the time of transfection with 3 μM DNA-PK inhibitor NU7441 (Tocris, Bristol, UK) or 10 μM Rad51 inhibitor B02 (Sigma-Aldrich St. Louis, MO). Cells were trypsinized 2 days post-transfection, washed with PBS and analysed by flow cytometry on a Fortessa X-20 cell analyzer (BD Biosciences). For each cell population, the integrated fluorescence signal (% positive cells × mean fluorescence) was calculated for each repair readout (i.e. GFP for direct end-joining and BFP for gene conversion) and normalized to that of transfection control (mCherry). Western blots, antibodies, oligonucleotides, plasmids and DNA manipulations, generation of U2OS shKu80 cells and generation of HEK-293T mAID-Ku70/mAID-Ku80 cells are described in Supplemental Information.

[3] = target: full-length human Ku70–Ku80 heterodimer (KuFL), expressed in Sf21 insect cells (human) (UniProt P12956); assay: switchSENSE; fluorescent DNA hybridised on the gold surface of the chip, Ku bound to this DNA in saturating conditions, then XLF injected (1, 2 and 8 μM); absence of IP6; biphasic, two steps binding mode fit; apparent affinities
[4] = target: full-length human Ku70–Ku80 heterodimer (KuFL), expressed in Sf21 insect cells (human) (UniProt P12956); assay: switchSENSE; fluorescent DNA hybridised on the gold surface of the chip, Ku bound to this DNA in saturating conditions, then XLF injected (1, 2 and 8 μM); 20 μM IP6 during Ku association and XLF titration; biphasic, two steps binding mode fit; apparent affinities
[5] = target: T1, KuFL (full-length human Ku70–Ku80 heterodimer) (Homo sapiens, UniProt P12956+P13010); assay: Isothermal titration calorimetry (ITC), KuFL with IP6 and IP6 analogues; assay type: binding; settings: 25 °C, Ku 4 µM in cell, IPs 40 µM in syringe
T1 construct: The full-length human Ku heterodimer subunits (Ku70 1–609, Ku80 1–732); 10x His-tag with TEV site (N); made in house; host or cells: Sf21 insect cells (baculovirus, MultiBac)
Experimental: Purification of Ku full-length (KuFL) for cryo-EM experiments was carried out as described previously ([5]). Expression and purification of KuFL for biophysical experiments was carried out as described previously ([20]). The full-length human Ku heterodimer subunits (Ku70 1–609, Ku80 1–732) were cloned into a Multibac vector ([21]). The construct has a 10× His-tag and a TEV site on the N-terminus of Ku80 and no-tag on Ku70. Protein production was initiated in Sf21 cells by infection with the baculovirus stock at MOI of 5 × 10^−3 and cells were collected 5–6 days after the infection (3–4 days after the proliferation arrest). Cells were sonicated and the supernatant was incubated with Benzonase (300 units for 30 min at 4°C). The Ku heterodimer was purified on a NiNTA-Agarose affinity column (Protino, Macherey Nagel) with a 1 M NaCl wash step to remove DNA excess. The eluted Ku was then bound onto an anion exchange column (Resource Q, Cytiva) equilibrated in 20 mM Tris pH 8.0, 50 mM NaCl, 50 mM KCl, 10 mM β-mercaptoethanol and eluted with a salt gradient. The final yield was about 20 mg of purified heterodimer per litre of culture. KuΔC constructs, heterodimer deleted of its C-terminal region (Ku70 1–544, Ku80 1–551) for X-ray crystallography, Ku mutants, Ku-2E (Ku with mutation in K357E on Ku70 and K481E on Ku80) and Ku-4E (Ku with mutations in H359E and H360E on Ku70 and K413E and H414E on Ku80) were cloned in the same vector and produced following the same protocol as KuFL expressed in Sf21 insect cells.
Calorimetry. Interactions between KuFL and inositol phosphates (IPs) (IP6 and IP6 analogues) were determined by Isothermal Titration Calorimetry (ITC) using a VP-ITC calorimeter (Malvern). Prior to measurements, all solutions were degassed under vacuum. The reaction cell of the ITC (volume 1.8 mL) was loaded with Ku heterodimers at 4 µM concentration. […] The free energy of binding (ΔG) and the entropy (ΔS) were determined using the classical thermodynamic formula, ΔG = - RT ln(Ka) and ΔG = ΔH - TΔS. […]

[6] = system: Ku70-Ku80 full length (KuFL, His-Ku80) (human); assay: switchSENSE; settings: Single-molecule: 20 mM Tris pH 7.5, 100 mM KCl, 2.5 mM MgCl2, 1 mg/mL BSA, 2 mM DTT, 0.8% glucose, 0.1% Trolox, 1% GLOX, 1 nM Ku, switchSENSE (15-240 nM Ku) …

Chain of full-length human Ku70–Ku80 heterodimer (KuFL), expressed in Sf21 insect cells (human) (P12956 whole entry, chain 1 of 2): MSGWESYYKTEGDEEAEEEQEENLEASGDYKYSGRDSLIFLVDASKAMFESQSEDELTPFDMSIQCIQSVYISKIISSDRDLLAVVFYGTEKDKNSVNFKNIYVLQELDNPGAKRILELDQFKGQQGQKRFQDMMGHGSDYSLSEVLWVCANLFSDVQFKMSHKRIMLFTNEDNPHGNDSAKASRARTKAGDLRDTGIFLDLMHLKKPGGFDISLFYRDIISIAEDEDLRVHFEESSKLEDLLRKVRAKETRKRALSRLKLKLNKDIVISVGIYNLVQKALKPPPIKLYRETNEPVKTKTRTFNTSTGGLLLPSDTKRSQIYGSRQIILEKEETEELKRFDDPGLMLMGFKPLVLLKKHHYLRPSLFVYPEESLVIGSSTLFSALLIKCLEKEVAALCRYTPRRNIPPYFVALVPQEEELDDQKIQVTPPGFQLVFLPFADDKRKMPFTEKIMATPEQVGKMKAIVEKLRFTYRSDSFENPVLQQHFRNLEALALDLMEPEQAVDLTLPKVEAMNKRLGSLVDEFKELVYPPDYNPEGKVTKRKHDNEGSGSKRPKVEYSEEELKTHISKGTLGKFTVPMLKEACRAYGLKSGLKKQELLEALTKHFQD
Chain of full-length human Ku70–Ku80 heterodimer (KuFL), expressed in Sf21 insect cells (human) (P13010 whole entry, chain 2 of 2, further chain): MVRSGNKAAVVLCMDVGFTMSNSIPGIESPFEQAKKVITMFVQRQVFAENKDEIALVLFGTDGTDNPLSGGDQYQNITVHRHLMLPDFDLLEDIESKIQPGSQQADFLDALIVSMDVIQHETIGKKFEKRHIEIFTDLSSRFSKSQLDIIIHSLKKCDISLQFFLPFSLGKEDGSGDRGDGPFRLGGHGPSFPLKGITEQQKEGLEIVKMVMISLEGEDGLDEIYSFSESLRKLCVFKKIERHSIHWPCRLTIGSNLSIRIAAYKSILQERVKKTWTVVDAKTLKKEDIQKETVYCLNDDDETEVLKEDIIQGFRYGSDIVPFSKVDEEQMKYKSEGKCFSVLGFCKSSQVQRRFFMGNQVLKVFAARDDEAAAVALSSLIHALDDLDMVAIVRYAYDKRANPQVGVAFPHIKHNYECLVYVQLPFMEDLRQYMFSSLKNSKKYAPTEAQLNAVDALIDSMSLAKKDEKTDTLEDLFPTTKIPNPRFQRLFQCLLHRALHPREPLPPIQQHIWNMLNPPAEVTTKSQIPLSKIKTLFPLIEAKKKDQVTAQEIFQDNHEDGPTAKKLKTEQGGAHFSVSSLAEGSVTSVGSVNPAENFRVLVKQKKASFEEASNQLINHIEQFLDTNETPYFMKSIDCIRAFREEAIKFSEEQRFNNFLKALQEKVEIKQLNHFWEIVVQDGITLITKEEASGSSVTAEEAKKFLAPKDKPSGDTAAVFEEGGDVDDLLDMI
Chain of XLF (Q9H9Q4 whole entry): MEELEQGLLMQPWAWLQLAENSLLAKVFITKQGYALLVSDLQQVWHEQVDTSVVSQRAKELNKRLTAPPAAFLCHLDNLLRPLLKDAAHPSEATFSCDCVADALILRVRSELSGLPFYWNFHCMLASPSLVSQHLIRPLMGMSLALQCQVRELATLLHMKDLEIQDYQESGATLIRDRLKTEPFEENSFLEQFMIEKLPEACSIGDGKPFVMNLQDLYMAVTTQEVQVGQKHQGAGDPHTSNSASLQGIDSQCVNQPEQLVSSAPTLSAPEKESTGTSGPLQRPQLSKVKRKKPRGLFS
T1 sequence (P12956 whole entry): as the sequence (P12956 whole entry, chain 1 of 2) above
T1 sequence (P13010 whole entry): as the sequence (P13010 whole entry, chain 2 of 2, further chain) above

For Calicheamicin γ1, the “XLF, Lig4 and PAXX in the soluble proteins fraction” value ([1]; highest dose of calicheamicin) was “depleted from the soluble proteins fraction” and the “NHEJ proteins including XLF and PAXX in the chromatin fraction” value ([1]; increasing concentrations of calicheamicin) was “increasingly detected in the chromatin fraction”.

In the case of O=c1cc(N2CCOCC2)oc2c(-c3cccc4c3sc3ccccc34)cccc12 [NU7441], the “expression of the HR marker BFP / HR activity” value [2] is reported as “compensatory increase in HR” and the “expression of the direct EJ (dEJ) marker GFP” value ([2]; NU7441 3 μM) is reported as “decreased”.

“XLF (from UniProt Q9H9Q4 1-299) (natural protein)” gave a KD1 (first of two apparent affinities, biphasic fit; without IP6) [3] of 3.6 µM, a KD2 (second of two apparent affinities, biphasic fit; without IP6) [3] of 1.9 µM and a KD1 (first of two apparent affinities, biphasic fit; with 20 μM IP6) [4] of 1.2 µM. It also gave a KD2 (second of two apparent affinities, biphasic fit; with 20 μM IP6) [4] of 0.13 µM.

Work on O=P(O)(O)O[C@H]1[C@H](OP(=O)(O)O)[C@@H](OP(=O)(O)O)[C@H](OP(=O)(O)O)[C@@H](OP(=O)(O)O)[C@H]1OP(=O)(O)O [scyllo-IP6, scyllo-inositol hexakisphosphate sodium salt] yielded a Kd [5] of 18 ± 2.5 nM.

With O=c1c2ccccc2nc(/C=C/c2cccnc2)n1Cc1ccccc1 [B02] the “expression of the HR marker BFP / HR activity” value [2] was “decreased”.

Work on O=P(O)(O)OC1C(OP(=O)(O)O)C(OP(=O)(O)O)C(OP(=O)(O)O)C(OP(=O)(O)O)C1OP(=O)(O)O [D-chiro-IP6, D-chiro-inositol 1,2,3,4,5,6-hexakisphosphate sodium salt] yielded a Kd [5] of 22 ± 6.8 nM.

Work on 48 bp dsDNA (switchSENSE) yielded a Kd ([6]; 3 uM IP6, kon 6.35e5 M-1 s-1, koff 1.27e-3 s-1) of 1.99 nM and a Kd ([6]; no IP6, kon 6.94e5 M-1 s-1, koff 2.26e-3 s-1) of 3.25 nM.

— publication PMC10682503, “Structural and functional basis of inositol hexaphosphate stimulation of NHEJ through stabilization of Ku-XLF interaction” (Nucleic Acids Research, 2023)
